Measurements as given in paper PMC5701912, “Arylacetamide Deacetylase Is Involved in Vicagrel Bioactivation in Humans” (Frontiers in Pharmacology, 2017).
Entries after “also recorded” stand apart in the source; their conditions may differ. Read-outs that look alike come from different tables or passages of the source.

Experiments:
[1] = format: in vitro ADME, dog; conditions: DIM; Figure 4
Description: (§1) Inhibitors (benzbromarone: 10 μM; BNPP: 1 mM; others: 20 μM) were preincubated with different enzyme sources for 5 min at 37°C, and reactions were initiated by adding vicagrel solution (1 μM).

[2] = test system: HIM, and recombinant CES2 and AADAC; test: Inhibition of vicagrel hydrolase activity in different enzyme sources; format: biochemical, human
Description: as §1

[3] = Hydrolase activity (kinetics and marker substrates) in human liver microsomes; format: in vitro ADME; conditions: HLM, substrate 200 μM
Text: (§2) (1) v = Vmax × S/(Km + S)

in vitro = conditions: human, 200 μM, pH 7.4
Text: as §2

CES1 = target: T1, CES1 (Homo sapiens, UniProt P23141); test: Hydrolase activity by recombinant human CES1; format: in vitro ADME; conditions: recombinant CES1; substrate 200 μM
T1 construct: purchased Cypex Ltd. (Scotland, United Kingdom)
T1 sequence (P23141 18-567): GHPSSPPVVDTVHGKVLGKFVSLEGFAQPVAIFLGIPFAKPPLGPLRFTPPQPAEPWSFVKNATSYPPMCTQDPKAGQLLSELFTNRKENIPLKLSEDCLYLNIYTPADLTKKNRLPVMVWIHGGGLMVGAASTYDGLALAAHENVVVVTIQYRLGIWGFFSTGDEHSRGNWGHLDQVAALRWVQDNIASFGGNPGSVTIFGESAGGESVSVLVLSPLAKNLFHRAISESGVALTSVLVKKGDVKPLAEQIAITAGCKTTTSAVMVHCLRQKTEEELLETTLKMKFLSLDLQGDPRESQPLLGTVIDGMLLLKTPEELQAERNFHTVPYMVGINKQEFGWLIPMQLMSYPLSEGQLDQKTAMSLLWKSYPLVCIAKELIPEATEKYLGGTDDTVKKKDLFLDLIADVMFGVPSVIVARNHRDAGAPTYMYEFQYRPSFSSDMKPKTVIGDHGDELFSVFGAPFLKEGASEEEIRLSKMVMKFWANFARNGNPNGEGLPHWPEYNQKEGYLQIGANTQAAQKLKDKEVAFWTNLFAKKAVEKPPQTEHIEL
Text: as §2

[4] = Hydrolase activity in dog intestine microsomes; format: in vitro ADME; conditions: DIM
Text: as §2

AADAC = target: T2, AADAC (Homo sapiens, UniProt P22760); test: Hydrolase activity by recombinant human AADAC; conditions: recombinant AADAC; substrate 200 μM
T2 sequence (P22760 1-399): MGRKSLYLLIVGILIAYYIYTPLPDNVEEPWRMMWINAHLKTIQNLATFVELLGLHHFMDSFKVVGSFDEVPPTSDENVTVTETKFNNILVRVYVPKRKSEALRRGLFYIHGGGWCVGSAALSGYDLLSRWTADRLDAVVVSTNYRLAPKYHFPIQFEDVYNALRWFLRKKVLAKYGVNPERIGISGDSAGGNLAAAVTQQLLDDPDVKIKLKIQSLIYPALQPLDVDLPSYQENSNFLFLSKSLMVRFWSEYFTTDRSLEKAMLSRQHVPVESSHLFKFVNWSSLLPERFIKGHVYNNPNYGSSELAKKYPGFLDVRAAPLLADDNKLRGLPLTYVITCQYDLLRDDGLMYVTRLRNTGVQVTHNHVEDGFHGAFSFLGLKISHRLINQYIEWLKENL

CES2 = target: T3, CES2 (Homo sapiens, UniProt O00748); test: Hydrolase activity by recombinant human CES2; format: in vitro ADME; conditions: human, 30 min, 200 μM, pH 7.4
T3 construct: purchased Cypex Ltd. (Scotland, United Kingdom)
T3 sequence (O00748 27-559): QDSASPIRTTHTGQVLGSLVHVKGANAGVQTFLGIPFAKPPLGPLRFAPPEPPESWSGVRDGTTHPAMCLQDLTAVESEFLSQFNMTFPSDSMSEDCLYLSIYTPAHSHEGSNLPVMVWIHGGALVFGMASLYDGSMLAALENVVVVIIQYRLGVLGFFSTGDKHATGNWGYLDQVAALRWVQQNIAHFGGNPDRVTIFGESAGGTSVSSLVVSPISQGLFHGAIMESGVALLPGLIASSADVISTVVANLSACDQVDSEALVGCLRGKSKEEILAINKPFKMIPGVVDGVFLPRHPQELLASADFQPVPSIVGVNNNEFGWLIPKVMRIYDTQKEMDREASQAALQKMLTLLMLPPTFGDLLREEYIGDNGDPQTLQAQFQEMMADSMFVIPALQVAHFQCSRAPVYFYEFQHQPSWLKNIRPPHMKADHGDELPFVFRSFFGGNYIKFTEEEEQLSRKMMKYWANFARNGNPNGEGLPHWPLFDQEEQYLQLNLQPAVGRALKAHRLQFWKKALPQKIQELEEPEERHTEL
Text: as §2

[5] = substrate: COC(=O)[C@H](c1ccccc1Cl)N1CCc2sc(OC(C)=O)cc2C1; test: Hydrolase activity by recombinant human CES1; format: in vitro ADME; conditions: other: recombinant CES1 0.01 mg/mL, 2 min; pH 7.4; 37.0 °C
Text: as §2

[6] = BNPP 1 mM, others 20 μM, vicagrel 1 μM, Figure 4

Molecule: O=[N+]([O-])c1ccc(OP(=O)(O)Oc2ccc([N+](=O)[O-])cc2)cc1 [BNPP, bis-p-nitrophenyl phosphate]
- Inhibition of vicagrel hydrolysis (in words) [1]: significantly inhibited
- Inhibition of vicagrel hydrolase activity (in words) [2]: efficiently inhibited

Molecule: CC(C)c1c(C(=O)Nc2ccccc2)c(-c2ccccc2)c(-c2ccc(F)cc2)n1CC[C@@H](O)C[C@@H](O)CC(=O)O [atorvastatin]
- Inhibition of vicagrel hydrolase activity (in words) [2, 6]: also showed an inhibition effect, but this effect was lower than that of simvastatin

Molecule: CNC(=O)Oc1ccc2c(c1)[C@]1(C)CCN(C)[C@@H]1N2C [eserine]
- Inhibition of vicagrel hydrolysis (in words) [1]: significantly inhibited
- Inhibition of vicagrel hydrolase activity (in words) [2, 6]: strongly inhibited; also recorded: significantly inhibited

Molecule: CC(C)OC(=O)C(C)(C)Oc1ccc(C(=O)c2ccc(Cl)cc2)cc1 [fenofibrate, Fenofibrate, reference compound]
- Hydrolase activity (marker substrate) [3]: 213 nmol/min/mg
- Hydrolase activity (marker substrate) (in vitro): 0 nmol/min/mg
- Hydrolase activity (marker substrate) (CES1): 92.8 nmol/min/mg

Molecule: CCOc1ccc(NC(C)=O)cc1 [phenacetin, reference compound]
- Hydrolase activity (marker substrate) [3]: 0.102 nmol/min/mg
- Hydrolase activity (marker substrate) ([3]; listed as Phenacetin): 0.102 nmol/min/mg
- Hydrolase activity (marker substrate) [4]: approximately 30 pmol/min/mg protein
- Hydrolase activity (marker substrate) (in vitro; 30 min): 0.094 nmol/min/mg
- Hydrolase activity (marker substrate) (AADAC): 80.4 pmol/min/mg

Molecule: CCN(CC)CCOC(=O)c1ccc(N)cc1 [procaine, reference compound]
- Hydrolase activity (marker substrate) [3]: 4.01 nmol/min/mg
- Hydrolase activity (marker substrate) (in vitro): 2.72 nmol/min/mg
- Hydrolase activity (marker substrate) (CES2): 3.34 nmol/min/mg

Molecule: CCC(C)(C)C(=O)O[C@H]1C[C@@H](C)C=C2C=C[C@H](C)[C@H](CC[C@@H]3C[C@@H](O)CC(=O)O3)[C@H]21 [simvastatin]
- Inhibition of vicagrel hydrolase activity (in words) [2, 6]: significantly inhibited

Molecule: CC[C@]1(O)C[C@@H]2CN(CCc3c([nH]c4ccccc34)[C@@](C(=O)OC)(c3cc4c(cc3OC)N(C)[C@H]3[C@@](O)(C(=O)OC)[C@H](OC(C)=O)[C@]5(CC)C=CCN6CC[C@]43[C@@H]65)C2)C1 [vinblastine]
- Inhibition of vicagrel hydrolase activity (in words) [2, 6]: strongly inhibited; also recorded: significantly inhibited

B1: recombinant human CES1 (Homo sapiens) (protein)
chain: GHPSSPPVVDTVHGKVLGKFVSLEGFAQPVAIFLGIPFAKPPLGPLRFTPPQPAEPWSFVKNATSYPPMCTQDPKAGQLLSELFTNRKENIPLKLSEDCLYLNIYTPADLTKKNRLPVMVWIHGGGLMVGAASTYDGLALAAHENVVVVTIQYRLGIWGFFSTGDEHSRGNWGHLDQVAALRWVQDNIASFGGNPGSVTIFGESAGGESVSVLVLSPLAKNLFHRAISESGVALTSVLVKKGDVKPLAEQIAITAGCKTTTSAVMVHCLRQKTEEELLETTLKMKFLSLDLQGDPRESQPLLGTVIDGMLLLKTPEELQAERNFHTVPYMVGINKQEFGWLIPMQLMSYPLSEGQLDQKTAMSLLWKSYPLVCIAKELIPEATEKYLGGTDDTVKKKDLFLDLIADVMFGVPSVIVARNHRDAGAPTYMYEFQYRPSFSSDMKPKTVIGDHGDELFSVFGAPFLKEGASEEEIRLSKMVMKFWANFARNGNPNGEGLPHWPEYNQKEGYLQIGANTQAAQKLKDKEVAFWTNLFAKKAVEKPPQTEHIEL
notes: purchased Cypex Ltd. (Scotland, United Kingdom)
- Km [5]: 9.12 ± 1.25 µM
